Laboratory results from patent publication US20200171028A1, “METALLOENZYME INHIBITOR COMPOUNDS” (Viiamet Pharmaceuticals Holdings, LLC, priority 2017, published 2020).

Experiments:
Format in all cases: biochemical
HDAC4 = HDAC4 (Homo sapiens, UniProt P56524); test: HDAC4 enzymatic assay; conditions: Table 3 comparison results
Experimental: (§1) All enzymatic reactions were conducted in duplicate at room temperature for 17 hours in a 50 μl mixture containing HDAC assay buffer (50 mM Tris-HCl, pH 7.4, 137 mM NaCl, 2.7 mM KCl, 0.05% Tween 20, 5 μg BSA), an HDAC substrate, an HDAC enzyme, and a test compound. Compound dilution was prepared ten-fold higher than the final concentration of the compounds with 10% DMSO in HDAC assay buffer and 5 al of the dilution was added to a 50 al reaction so that the final concentration of DMSO is 1% in all of reactions. After enzymatic reactions, 50 μl of HDAC Developer was added to each well and the plate was incubated at room temperature for an additional 20 minutes. Fluorescence intensity was measured at an excitation of 360 nm and an emission of 460 nm using a Tecan Infinite M1000 or Biotek Synergy microplate reader. The fluorescent intensity data were analyzed using the computer software, Graphpad Prism. In the absence of the compound, the fluorescent intensity (Ft) in each data set was defined as 100% activity. In the absence of HDAC, the fluorescent intensity (Fb) in each data set was defined as 0% activity. The percent activity in the presence of each compound was calculated according to the following equation: % activity=(F−Fb)/(Ft−Fb), where F=the fluorescent intensity in the presence of the compound. […]

HDAC5 = HDAC5 (Homo sapiens, UniProt Q9UQL6); test: HDAC5 enzymatic assay; conditions: Table 3 comparison results
Chain of HDAC5 (Q9UQL6 whole entry): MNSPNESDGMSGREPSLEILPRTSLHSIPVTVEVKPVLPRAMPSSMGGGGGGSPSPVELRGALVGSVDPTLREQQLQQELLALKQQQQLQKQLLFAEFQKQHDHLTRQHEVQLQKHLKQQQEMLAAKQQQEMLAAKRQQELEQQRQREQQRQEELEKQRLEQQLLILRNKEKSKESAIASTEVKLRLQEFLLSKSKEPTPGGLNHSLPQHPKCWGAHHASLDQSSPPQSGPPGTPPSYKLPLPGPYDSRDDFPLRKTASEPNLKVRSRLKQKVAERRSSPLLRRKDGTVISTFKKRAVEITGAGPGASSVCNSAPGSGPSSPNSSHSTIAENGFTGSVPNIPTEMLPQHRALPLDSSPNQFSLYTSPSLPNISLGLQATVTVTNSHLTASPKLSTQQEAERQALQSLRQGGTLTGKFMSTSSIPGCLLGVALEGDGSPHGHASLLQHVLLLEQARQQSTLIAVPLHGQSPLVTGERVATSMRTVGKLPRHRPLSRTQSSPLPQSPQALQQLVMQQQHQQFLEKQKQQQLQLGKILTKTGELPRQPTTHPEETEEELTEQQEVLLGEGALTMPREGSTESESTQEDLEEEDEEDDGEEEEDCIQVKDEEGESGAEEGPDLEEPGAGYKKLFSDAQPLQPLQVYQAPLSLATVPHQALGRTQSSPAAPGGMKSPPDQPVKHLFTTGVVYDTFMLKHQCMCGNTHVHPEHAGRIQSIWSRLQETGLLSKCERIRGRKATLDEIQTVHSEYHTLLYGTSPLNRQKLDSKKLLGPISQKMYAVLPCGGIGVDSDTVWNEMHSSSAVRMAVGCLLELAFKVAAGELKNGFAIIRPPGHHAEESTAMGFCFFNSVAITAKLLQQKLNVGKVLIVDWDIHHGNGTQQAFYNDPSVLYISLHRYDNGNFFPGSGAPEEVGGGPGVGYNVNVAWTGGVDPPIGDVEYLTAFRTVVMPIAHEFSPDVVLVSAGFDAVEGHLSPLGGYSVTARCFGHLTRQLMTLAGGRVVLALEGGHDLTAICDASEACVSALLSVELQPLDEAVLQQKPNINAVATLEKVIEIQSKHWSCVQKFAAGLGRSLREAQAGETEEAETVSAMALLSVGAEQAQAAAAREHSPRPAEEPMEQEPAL
Experimental: as §1

HDAC11 = biological target: T1, HDAC11 (Homo sapiens, UniProt Q96DB2); test: HDAC11 enzymatic assay; conditions: Table 3 comparison results
T1 sequence (Q96DB2 1-347): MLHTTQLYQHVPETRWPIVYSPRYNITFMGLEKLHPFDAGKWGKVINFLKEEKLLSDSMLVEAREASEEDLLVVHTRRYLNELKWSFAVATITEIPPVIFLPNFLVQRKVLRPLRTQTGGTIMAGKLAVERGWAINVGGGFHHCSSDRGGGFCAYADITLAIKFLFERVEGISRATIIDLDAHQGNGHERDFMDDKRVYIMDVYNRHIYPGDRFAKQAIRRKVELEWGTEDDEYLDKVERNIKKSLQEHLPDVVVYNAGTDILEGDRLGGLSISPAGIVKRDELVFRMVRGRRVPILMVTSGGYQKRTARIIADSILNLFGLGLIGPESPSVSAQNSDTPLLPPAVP
Experimental: as §1

HDAC7 = biological target: T2, HDAC7 (Homo sapiens, UniProt Q8WUI4); test: HDAC7 enzymatic assay; conditions: Table 3 comparison results
T2 sequence (Q8WUI4 1-952): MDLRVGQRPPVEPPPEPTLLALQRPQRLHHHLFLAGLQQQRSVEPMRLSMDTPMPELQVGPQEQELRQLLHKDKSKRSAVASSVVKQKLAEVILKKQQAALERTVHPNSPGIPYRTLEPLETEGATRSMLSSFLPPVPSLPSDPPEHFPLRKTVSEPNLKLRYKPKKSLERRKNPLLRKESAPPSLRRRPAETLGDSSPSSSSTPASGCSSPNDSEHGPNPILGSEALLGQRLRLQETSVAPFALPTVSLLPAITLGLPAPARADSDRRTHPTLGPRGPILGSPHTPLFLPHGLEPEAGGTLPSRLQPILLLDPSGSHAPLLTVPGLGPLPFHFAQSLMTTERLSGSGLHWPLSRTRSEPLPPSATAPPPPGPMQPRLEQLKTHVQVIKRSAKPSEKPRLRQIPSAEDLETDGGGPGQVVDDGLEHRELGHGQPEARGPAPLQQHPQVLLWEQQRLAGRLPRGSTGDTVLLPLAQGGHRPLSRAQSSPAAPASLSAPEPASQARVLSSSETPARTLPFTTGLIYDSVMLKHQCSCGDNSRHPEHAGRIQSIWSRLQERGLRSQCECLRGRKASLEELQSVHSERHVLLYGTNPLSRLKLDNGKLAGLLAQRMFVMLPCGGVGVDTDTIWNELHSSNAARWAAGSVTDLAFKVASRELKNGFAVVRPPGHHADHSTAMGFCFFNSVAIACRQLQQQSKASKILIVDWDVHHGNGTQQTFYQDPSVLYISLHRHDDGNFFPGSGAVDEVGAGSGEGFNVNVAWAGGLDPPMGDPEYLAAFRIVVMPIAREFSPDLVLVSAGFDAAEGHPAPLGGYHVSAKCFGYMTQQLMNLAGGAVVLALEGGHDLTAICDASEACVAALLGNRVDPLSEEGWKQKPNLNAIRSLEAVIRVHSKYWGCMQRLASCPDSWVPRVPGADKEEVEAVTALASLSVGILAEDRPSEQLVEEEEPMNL
Experimental: as §1

HDAC8 = biological target: T3, HDAC8 (Homo sapiens, UniProt Q9BY41); test: HDAC8 enzymatic assay
T3 sequence (Q9BY41 1-377): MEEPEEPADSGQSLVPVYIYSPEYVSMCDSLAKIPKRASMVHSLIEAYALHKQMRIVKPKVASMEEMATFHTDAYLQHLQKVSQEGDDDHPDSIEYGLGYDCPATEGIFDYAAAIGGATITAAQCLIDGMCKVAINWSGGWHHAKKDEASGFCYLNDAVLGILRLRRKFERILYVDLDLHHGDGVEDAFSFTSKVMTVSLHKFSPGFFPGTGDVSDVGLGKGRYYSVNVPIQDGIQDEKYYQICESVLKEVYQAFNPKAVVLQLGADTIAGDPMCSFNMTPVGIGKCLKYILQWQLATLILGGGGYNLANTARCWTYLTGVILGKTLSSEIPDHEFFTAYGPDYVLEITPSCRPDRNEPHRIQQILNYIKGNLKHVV
Experimental: as §1

HDAC2 = HDAC2 (Homo sapiens, UniProt Q92769); test: HDAC2 enzymatic assay
Chain of HDAC2 (Q92769 whole entry): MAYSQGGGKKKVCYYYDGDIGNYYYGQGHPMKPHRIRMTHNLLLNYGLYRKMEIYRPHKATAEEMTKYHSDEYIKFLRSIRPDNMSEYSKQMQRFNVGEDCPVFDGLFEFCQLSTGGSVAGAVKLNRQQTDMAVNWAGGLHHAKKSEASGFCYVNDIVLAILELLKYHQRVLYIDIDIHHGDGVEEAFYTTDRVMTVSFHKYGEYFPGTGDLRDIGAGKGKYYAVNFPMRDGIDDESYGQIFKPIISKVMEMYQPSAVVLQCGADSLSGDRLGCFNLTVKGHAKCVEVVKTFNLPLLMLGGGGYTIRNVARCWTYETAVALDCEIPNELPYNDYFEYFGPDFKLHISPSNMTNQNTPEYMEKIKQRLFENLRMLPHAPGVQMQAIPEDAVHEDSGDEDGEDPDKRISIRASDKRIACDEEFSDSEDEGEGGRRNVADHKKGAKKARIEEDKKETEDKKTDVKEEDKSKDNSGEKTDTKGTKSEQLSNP
Experimental: as §1

HDAC3/NCOR2 = HDAC3/NCOR2 (Homo sapiens, UniProt O15379); test: HDAC3 enzymatic assay
Chain of HDAC3/NCOR2 (Q9Y618 395-489): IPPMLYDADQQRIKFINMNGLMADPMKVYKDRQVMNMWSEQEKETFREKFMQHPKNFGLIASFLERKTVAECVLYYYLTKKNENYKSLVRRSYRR
Chain of HDAC3/NCOR2 (O15379 whole entry): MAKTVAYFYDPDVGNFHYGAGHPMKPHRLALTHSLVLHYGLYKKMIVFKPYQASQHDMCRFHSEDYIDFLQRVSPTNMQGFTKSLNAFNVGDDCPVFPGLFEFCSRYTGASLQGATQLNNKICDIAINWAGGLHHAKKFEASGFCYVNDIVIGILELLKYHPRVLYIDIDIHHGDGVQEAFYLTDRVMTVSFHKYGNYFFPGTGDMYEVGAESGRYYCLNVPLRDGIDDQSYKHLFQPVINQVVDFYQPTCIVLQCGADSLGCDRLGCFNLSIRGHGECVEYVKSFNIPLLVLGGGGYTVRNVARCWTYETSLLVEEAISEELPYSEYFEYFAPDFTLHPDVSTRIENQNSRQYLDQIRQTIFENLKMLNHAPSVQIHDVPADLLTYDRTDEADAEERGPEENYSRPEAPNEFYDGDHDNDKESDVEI
Experimental: as §1

HDAC6 = biological target: T4, HDAC6 (Homo sapiens, UniProt Q9UBN7); test: HDAC6 enzymatic assay; conditions: Table 3 comparison results
T4 sequence (Q9UBN7 1-1215): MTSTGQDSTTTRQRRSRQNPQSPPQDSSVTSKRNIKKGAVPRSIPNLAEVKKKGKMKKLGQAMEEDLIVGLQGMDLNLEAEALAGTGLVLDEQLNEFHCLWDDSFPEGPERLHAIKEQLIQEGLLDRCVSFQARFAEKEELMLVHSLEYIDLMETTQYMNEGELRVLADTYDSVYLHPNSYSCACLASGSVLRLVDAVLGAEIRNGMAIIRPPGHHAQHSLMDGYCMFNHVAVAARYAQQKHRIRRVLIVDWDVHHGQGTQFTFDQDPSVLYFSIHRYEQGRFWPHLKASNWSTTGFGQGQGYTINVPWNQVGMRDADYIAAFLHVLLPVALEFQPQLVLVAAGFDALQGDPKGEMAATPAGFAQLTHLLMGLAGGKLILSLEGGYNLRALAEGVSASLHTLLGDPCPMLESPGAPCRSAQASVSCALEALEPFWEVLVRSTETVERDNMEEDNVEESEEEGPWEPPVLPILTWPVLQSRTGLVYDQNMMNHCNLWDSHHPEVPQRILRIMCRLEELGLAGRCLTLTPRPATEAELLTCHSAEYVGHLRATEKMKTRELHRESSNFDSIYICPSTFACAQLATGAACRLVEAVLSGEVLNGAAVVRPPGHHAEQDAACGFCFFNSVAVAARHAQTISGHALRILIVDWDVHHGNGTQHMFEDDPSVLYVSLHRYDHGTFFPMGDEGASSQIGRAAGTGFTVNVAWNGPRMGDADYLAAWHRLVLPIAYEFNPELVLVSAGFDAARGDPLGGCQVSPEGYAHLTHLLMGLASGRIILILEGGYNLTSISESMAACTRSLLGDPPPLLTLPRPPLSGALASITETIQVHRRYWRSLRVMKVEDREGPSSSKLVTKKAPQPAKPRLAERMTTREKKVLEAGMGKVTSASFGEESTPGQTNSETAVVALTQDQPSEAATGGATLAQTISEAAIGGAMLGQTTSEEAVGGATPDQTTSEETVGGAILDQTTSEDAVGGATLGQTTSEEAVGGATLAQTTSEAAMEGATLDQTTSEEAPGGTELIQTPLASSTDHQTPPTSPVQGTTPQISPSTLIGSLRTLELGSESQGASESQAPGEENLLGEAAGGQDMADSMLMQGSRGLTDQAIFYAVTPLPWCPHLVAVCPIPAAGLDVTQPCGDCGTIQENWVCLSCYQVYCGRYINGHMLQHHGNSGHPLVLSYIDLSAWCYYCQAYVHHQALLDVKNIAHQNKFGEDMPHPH
Experimental: as §1

HDAC10 = biological target: T5, HDAC10 (Homo sapiens, UniProt Q969S8); test: HDAC10 enzymatic assay; conditions: Table 3 comparison results
T5 sequence (Q969S8 1-669): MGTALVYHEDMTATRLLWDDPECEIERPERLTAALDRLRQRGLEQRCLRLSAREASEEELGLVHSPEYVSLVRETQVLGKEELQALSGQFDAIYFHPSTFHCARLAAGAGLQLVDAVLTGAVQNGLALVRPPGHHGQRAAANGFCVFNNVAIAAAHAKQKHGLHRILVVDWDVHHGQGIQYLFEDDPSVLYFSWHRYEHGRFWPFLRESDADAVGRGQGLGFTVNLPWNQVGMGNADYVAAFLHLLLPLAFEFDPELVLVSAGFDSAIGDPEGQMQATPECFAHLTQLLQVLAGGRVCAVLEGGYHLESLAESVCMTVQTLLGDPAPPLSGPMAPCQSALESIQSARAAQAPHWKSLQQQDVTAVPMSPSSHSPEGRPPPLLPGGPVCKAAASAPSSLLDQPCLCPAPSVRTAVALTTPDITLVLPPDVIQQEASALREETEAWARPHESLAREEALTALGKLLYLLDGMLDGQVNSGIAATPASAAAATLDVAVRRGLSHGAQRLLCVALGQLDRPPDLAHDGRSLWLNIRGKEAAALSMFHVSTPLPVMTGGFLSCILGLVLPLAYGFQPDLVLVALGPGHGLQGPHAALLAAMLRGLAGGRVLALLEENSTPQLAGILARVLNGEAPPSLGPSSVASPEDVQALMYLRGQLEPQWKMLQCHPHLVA
Experimental: as §1

HDAC9 = HDAC9 (Homo sapiens, UniProt Q9UKV0); test: HDAC9 enzymatic assay; conditions: Table 3 comparison results
Chain of HDAC9 (Q9UKV0 whole entry): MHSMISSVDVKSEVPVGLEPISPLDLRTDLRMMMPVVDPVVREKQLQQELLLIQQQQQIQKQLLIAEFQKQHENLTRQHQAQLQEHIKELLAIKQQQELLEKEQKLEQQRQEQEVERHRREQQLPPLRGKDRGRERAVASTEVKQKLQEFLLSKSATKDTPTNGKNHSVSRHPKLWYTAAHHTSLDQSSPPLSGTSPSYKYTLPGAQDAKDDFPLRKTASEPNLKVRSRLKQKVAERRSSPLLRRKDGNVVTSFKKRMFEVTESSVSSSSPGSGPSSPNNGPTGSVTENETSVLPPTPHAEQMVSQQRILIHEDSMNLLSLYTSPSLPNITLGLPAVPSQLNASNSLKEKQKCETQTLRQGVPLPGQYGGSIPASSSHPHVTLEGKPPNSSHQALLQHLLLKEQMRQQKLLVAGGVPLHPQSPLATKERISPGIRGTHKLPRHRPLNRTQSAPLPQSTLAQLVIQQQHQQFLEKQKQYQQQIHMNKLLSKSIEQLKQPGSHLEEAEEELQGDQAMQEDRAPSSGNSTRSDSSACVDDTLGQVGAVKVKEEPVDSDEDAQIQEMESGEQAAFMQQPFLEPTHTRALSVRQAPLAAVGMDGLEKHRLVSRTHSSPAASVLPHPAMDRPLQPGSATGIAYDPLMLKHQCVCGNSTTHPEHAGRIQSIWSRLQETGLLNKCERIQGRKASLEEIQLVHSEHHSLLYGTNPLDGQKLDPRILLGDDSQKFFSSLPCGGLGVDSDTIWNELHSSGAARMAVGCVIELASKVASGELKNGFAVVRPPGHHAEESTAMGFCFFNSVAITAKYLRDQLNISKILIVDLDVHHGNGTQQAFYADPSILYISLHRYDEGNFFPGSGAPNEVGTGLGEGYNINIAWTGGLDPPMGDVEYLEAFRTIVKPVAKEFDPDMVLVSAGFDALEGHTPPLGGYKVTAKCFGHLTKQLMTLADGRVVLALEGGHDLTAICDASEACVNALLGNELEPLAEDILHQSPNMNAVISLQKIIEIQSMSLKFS
Experimental: as §1

HDAC1 = HDAC1 (Homo sapiens, UniProt Q13547); test: HDAC1 enzymatic assay
Chain of HDAC1 (Q13547 whole entry): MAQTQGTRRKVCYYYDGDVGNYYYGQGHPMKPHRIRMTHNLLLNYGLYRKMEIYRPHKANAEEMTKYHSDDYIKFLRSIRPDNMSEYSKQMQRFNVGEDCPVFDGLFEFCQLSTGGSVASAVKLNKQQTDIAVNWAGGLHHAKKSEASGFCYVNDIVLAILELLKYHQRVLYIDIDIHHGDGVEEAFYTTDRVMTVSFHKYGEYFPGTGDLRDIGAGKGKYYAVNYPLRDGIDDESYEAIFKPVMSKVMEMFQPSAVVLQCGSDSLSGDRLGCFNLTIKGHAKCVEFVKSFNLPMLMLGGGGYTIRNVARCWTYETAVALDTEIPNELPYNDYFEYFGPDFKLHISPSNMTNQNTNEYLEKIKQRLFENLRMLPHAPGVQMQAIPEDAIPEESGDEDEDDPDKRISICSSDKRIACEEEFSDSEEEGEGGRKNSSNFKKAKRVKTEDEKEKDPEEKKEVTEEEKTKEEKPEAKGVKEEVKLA
Experimental: as §1

Chain of HDAC4 (P56524 whole entry): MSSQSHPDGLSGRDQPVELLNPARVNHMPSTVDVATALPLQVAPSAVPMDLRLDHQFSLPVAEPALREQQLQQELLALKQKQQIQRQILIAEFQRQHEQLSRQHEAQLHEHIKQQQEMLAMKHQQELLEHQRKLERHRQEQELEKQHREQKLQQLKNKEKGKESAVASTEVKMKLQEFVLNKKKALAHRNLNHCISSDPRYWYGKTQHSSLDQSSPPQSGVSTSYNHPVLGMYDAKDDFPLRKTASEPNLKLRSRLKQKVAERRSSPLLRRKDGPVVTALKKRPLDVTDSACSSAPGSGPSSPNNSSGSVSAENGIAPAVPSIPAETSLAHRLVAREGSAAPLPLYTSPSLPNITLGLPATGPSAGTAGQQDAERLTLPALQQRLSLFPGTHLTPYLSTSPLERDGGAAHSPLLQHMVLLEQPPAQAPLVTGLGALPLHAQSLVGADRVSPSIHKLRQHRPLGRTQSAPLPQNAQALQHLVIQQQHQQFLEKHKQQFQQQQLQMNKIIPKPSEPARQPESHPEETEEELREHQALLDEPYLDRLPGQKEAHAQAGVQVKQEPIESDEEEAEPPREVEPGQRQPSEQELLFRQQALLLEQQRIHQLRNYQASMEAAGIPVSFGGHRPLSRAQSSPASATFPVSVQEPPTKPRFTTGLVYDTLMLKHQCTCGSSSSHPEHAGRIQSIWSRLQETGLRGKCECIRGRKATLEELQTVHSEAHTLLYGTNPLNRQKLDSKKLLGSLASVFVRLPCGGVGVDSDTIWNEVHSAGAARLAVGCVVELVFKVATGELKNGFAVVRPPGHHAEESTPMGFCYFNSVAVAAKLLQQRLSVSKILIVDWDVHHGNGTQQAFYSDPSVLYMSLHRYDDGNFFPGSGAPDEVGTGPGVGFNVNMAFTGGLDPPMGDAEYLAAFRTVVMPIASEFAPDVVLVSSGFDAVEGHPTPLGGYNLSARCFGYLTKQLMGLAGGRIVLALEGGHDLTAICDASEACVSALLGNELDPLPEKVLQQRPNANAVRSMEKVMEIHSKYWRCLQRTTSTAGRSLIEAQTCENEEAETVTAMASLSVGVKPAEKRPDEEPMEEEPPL

| Compound | IC50 (HDAC4) | IC50 (HDAC5) | IC50 (HDAC11) | IC50 (HDAC7) | IC50 (HDAC8) | IC50 (HDAC2) | IC50 (HDAC3/NCOR2) | IC50 (HDAC6) | IC50 (HDAC10) | IC50 (HDAC9) | IC50 (HDAC1) |
| --- | --- | --- | --- | --- | --- | --- | --- | --- | --- | --- | --- |
| FC(F)(F)c1nc(-c2cnc(NC3(c4ccccc4)CC3)nc2)no1 | 13 nM | 250 nM | > 30000 nM | 20 nM | > 30000 nM | 13000 nM | 4100 nM | 150 nM | 6400 nM | 77 nM | – |
| FC(F)c1nc(-c2cnc(NC3(c4ccccc4)CC3)nc2)no1 | – | – | – | – | – | – | – | 2900 nM | – | – | > 30000 nM |
